Laboratory results: article PMC5719405, “Sex-related pharmacokinetic differences and mechanisms of metapristone (RU486 metabolite)” (Scientific Reports, 2017)
Where two headings read alike, the source gives them in different places.

Assays:
HT-29 cells = settings: cited from earlier work
[1] = Single-dose pharmacokinetics of metapristone in rats (p.o. and i.v.), non-compartmental analysis; assay type: in vivo, Sprague Dawley (SD) rats; settings: for MRT last: read-out: MRT (0-t)
Experimental: For pharmacokinetic study, rats were fasted overnight with free access to water using procedures reported previously. Ninety-six SD rats (forty-eight males and forty-eight females) were randomly divided into […] single-dose groups. Rats (six animals/sex/dose) were given a single oral dose of 22.5, 45 and 90 mg/kg metapristone (in soybean oil solution) by intragastric administration or 10 mg/kg metapristone by intravenous bolus injection. Rat blood samples (0.25 mL) were collected from the ocular vein into heparinized tubes prior to and at 0 (before administration), 0.5, 1.0, 1.5, 2.0, 4.0, 6.0, 8.0, 12, 24, 36 and 48 h post-dosing in female rats or 0.5, 1.0, 1.5, 2.0, 4.0, 6.0, 8.0, 12, 24, 30 and 36 h post-dosing in male rats. In the repeated dose study twenty-four rats (six animals/sex/dose) received the same dosing regimen at 45 mg/kg metapristone for 10 days. Blood samples were collected after oral administration on day 1 and 10 at T max. The samples were stored at −80 °C until analysis. Beagle dogs (three animals/sex/dose) were dosed by gavage at 5.62, 11.25, 22.5 mg/kg metapristone (in soybean oil solution). Dog blood (0.25 mL) was withdrawn from the jugular vein at 0.5, 1.0, 2.0, 4.0, 6.0, 8.0, 10, 12, 24 and 48 h after a single oral administration.
The plasma samples obtained by centrifugation at 4000 g for 10 min and stored at −80 °Cuntil analysis. To each 100 µL of plasma sample, 50 µL of internal standard solution were added. Metapristone was then separated and analyzed by the LC/MS/MS method according to the previously described procedures. Peak area ratios of metapristone to the internal standard were plotted against theoretical concentrations. The maximum plasma concentration (C max), the time to reach C max (T max) were determined directly from experimental data. The other pharmacokinetic parameters such as elimination half-life (t 1/2), and mean residence time (MRT) were calculated by using the non-compartmental pharmacokinetics data analysis software of DAS version 3.2 (Bio Guider Co., Shanghai, China). The area under the plasma concentration-time curve from zero to infinity was calculated by using the linear trapezoidal rule with extrapolation to infinity with terminal constant eliminate rate (k e). Bioavailability was calculated as (AUCp.o./AUCi.v.) x (dosei.v./ dosep.o.) 100% as we previously described.

[2] = Sprague-Dawley, rat, plasma, iv, female rats, i.v. 10 mg/kg
[3] = Sprague-Dawley, rat, plasma, iv, male rats, i.v. 10 mg/kg
[4] = Sprague-Dawley, rat, plasma, po, female rats, p.o. 22.5 mg/kg
[5] = Sprague-Dawley, rat, plasma, po, female rats, p.o. 45 mg/kg
[6] = Sprague-Dawley, rat, plasma, po, female rats, p.o. 90 mg/kg
[7] = Sprague-Dawley, rat, plasma, po, male rats, p.o. 22.5 mg/kg
[8] = Sprague-Dawley, rat, plasma, po, male rats, p.o. 45 mg/kg
[9] = Sprague-Dawley, rat, plasma, po, male rats, p.o. 90 mg/kg

CC#C[C@]1(O)CC[C@H]2[C@@H]3CCC4=CC(=O)CCC4=C3[C@@H](c3ccc(NC)cc3)C[C@@]21C [metapristone, N-monodemethyl mifepristone]
adhesion of HT-29 cells to endothelial cells (HT-29 cells): interrupted adhesion
AUC(0-inf) [1, 2]: 9810 ± 2340 ng·h/mL
AUC(0-t) [1, 2]: 9750 ± 2320 ng·h/mL
Cmax [1, 2]: 6050 ± 670 ng/mL
half-life [1, 2]: 311 ± 205 min
MRT last [1, 2]: 1.68 ± 0.72 h
AUC(0-inf) [1, 3]: 5460 ± 1150 ng·h/mL
AUC(0-t) [1, 3]: 5520 ± 1150 ng·h/mL
Cmax [1, 3]: 4050 ± 250 ng/mL
half-life [1, 3]: 567 ± 300 min
MRT last [1, 3]: 1.56 ± 0.41 h
AUC(0-inf) [1, 4]: 4230 ± 1640 ng·h/mL
AUC(0-t) [1, 4]: 4050 ± 1620 ng·h/mL
Cmax [1, 4]: 270 ± 50 ng/mL
half-life [1, 4]: 649 ± 192 min
bioavailability ([1]; Sprague-Dawley, rat, plasma, po, female rats, p.o. 22.5 mg/kg, read-out: F): 18.5%
MRT last [1, 4]: 14.4 ± 5.65 h
Tmax ([1]; Sprague-Dawley, rat, plasma, po, female rats, p.o. 22.5 mg/kg, read-out: T max): 9 ± 7.5 h
Vd/F ([1]; Sprague-Dawley, rat, plasma, po, female rats, p.o. 22.5 mg/kg, read-out: V d /F): 77.3 ± 36 L/kg
AUC(0-inf) [1, 5]: 11300 ± 3170 ng·h/mL
AUC(0-t) [1, 5]: 9630 ± 4540 ng·h/mL
Cmax [1, 5]: 650 ± 220 ng/mL
half-life [1, 5]: 643 ± 223 min
bioavailability ([1]; Sprague-Dawley, rat, plasma, po, female rats, p.o. 45 mg/kg, read-out: F): 22%
MRT last [1, 5]: 13.7 ± 6.91 h
Tmax ([1]; Sprague-Dawley, rat, plasma, po, female rats, p.o. 45 mg/kg, read-out: T max): 11 ± 12.3 h
Vd/F ([1]; Sprague-Dawley, rat, plasma, po, female rats, p.o. 45 mg/kg, read-out: V d /F): 67.6 ± 47.6 L/kg
AUC(0-inf) [1, 6]: 15600 ± 2100 ng·h/mL
AUC(0-t) [1, 6]: 14900 ± 2190 ng·h/mL
Cmax [1, 6]: 790 ± 200 ng/mL
half-life [1, 6]: 530 ± 438 min
bioavailability ([1]; Sprague-Dawley, rat, plasma, po, female rats, p.o. 90 mg/kg, read-out: F): 16.9%
MRT last [1, 6]: 15.6 ± 5.82 h
Tmax ([1]; Sprague-Dawley, rat, plasma, po, female rats, p.o. 90 mg/kg, read-out: T max): 7.58 ± 3.38 h
Vd/F ([1]; Sprague-Dawley, rat, plasma, po, female rats, p.o. 90 mg/kg, read-out: V d /F): 86.3 ± 62.9 L/kg
AUC(0-inf) [1, 7]: 4470 ± 1110 ng·h/mL
AUC(0-t) [1, 7]: 3570 ± 1090 ng·h/mL
Cmax [1, 7]: 30 ± 10 ng/mL
half-life [1, 7]: 480 ± 144 min
bioavailability ([1]; Sprague-Dawley, rat, plasma, po, male rats, p.o. 22.5 mg/kg, read-out: F): 28.7%
MRT last [1, 7]: 11.2 ± 2.12 h
Tmax ([1]; Sprague-Dawley, rat, plasma, po, male rats, p.o. 22.5 mg/kg, read-out: T max): 5.7 ± 2 h
Vd/F ([1]; Sprague-Dawley, rat, plasma, po, male rats, p.o. 22.5 mg/kg, read-out: V d /F): 804 ± 267 L/kg
AUC(0-inf) [1, 8]: 2040 ± 1330 ng·h/mL
AUC(0-t) [1, 8]: 1960 ± 1320 ng·h/mL
Cmax [1, 8]: 140 ± 100 ng/mL
half-life [1, 8]: 487 ± 259 min
bioavailability ([1]; Sprague-Dawley, rat, plasma, po, male rats, p.o. 45 mg/kg, read-out: F): 7.9%
MRT last [1, 8]: 13.9 ± 1.17 h
Tmax ([1]; Sprague-Dawley, rat, plasma, po, male rats, p.o. 45 mg/kg, read-out: T max): 7.7 ± 2.9 h
Vd/F ([1]; Sprague-Dawley, rat, plasma, po, male rats, p.o. 45 mg/kg, read-out: V d /F): 768 ± 127 L/kg
AUC(0-inf) [1, 9]: 8920 ± 960 ng·h/mL
AUC(0-t) [1, 9]: 8760 ± 70 ng·h/mL
Cmax [1, 9]: 550 ± 180 ng/mL
half-life [1, 9]: 277 ± 180 min
bioavailability ([1]; Sprague-Dawley, rat, plasma, po, male rats, p.o. 90 mg/kg, read-out: F): 17.6%
MRT last [1, 9]: 12.8 ± 2.43 h
Tmax ([1]; Sprague-Dawley, rat, plasma, po, male rats, p.o. 90 mg/kg, read-out: T max): 10.3 ± 2.7 h
Vd/F ([1]; Sprague-Dawley, rat, plasma, po, male rats, p.o. 90 mg/kg, read-out: V d /F): 92.5 ± 91.7 L/kg
bioavailability ([1]; Sprague-Dawley, rat, plasma, male rats, range over three oral doses, read-out: Oral bioavailability): 2.1 to 17.6%
Tmax ([1]; Sprague-Dawley, rat, plasma, rats, both sexes, oral doses of Table 1, read-out: T max after oral absorption): 5.7 to 11 h
CL/F ([1]; female rats, i.v. 10 mg/kg): 17.7 ± 4.17 mL/min/kg
Vd/F ([1]; female rats, i.v. 10 mg/kg): 8.02 ± 6.13 L/kg
CL/F ([1]; female, Sprague-Dawley, rat, plasma, po, 22.5 mg/kg, female rats, p.o. 22.5 mg/kg, read-out: CL/F (converted)): 117 mL/min/kg
CL/F ([1]; female, Sprague-Dawley, rat, plasma, po, 45 mg/kg, female rats, p.o. 45 mg/kg, read-out: CL/F (converted)): 87.5 mL/min/kg
CL/F ([1]; female, Sprague-Dawley, rat, plasma, po, 90 mg/kg, female rats, p.o. 90 mg/kg, read-out: CL/F (converted)): 80.8 mL/min/kg
decrease of CL/F for female rats versus male rats ([1]; i.v. 10 mg/kg): 87%
CL/F ([1]; male rats, i.v. 10 mg/kg): 33 ± 6.5 mL/min/kg
Vd/F ([1]; male rats, i.v. 10 mg/kg): 24.34 ± 5.52 L/kg
CL/F ([1]; male rats, p.o. 45 mg/kg, 45 mg/kg): 782.2 ± 345 mL/min/kg
CL/F ([1]; male, Sprague-Dawley, rat, plasma, po, 22.5 mg/kg, male rats, p.o. 22.5 mg/kg, read-out: CL/F (converted)): 1160 mL/min/kg
CL/F ([1]; male, Sprague-Dawley, rat, plasma, po, 45 mg/kg, male rats, p.o. 45 mg/kg, read-out: CL/F (converted)): 782 mL/min/kg
CL/F ([1]; male, Sprague-Dawley, rat, plasma, po, 90 mg/kg, male rats, p.o. 90 mg/kg, read-out: CL/F (converted)): 196 mL/min/kg
increase of C max for female rats versus male rats ([1]; p.o. 45 mg/kg): 364%
